Laboratory results as given in patent publication US7005546B2, “Acetamidobenzamide compounds for neurodegenerative disorders” (Renovis, Inc., priority 1995, dated 2006).

Key:
[1] = tested on: MPTP-induced reduction in striatal dopamine, C57BL/6J mice; experiment: Dopamine depletion studies (MPTP mouse model of Parkinson's disease); format: in vivo; conditions: for preventing dopamine depletion following MPTP challenge (in words): Table 1 conditions, 30 mg/kg p.o.
Description: These findings have led to the development of an assay for agents effective in treating dopamine-associated neurodegenerative disorders, such as Parkinson's disease. In this assay, test animals are given an amount of MPTP adequate to severely depress their dopamine levels. Test compounds are administered to determine if they are capable of preventing the loss of dopamine in the test animals. To the extent that dopamine levels are retained, a compound can be considered to be an effective agent for slowing or delaying the course of neurodegenerative disease, e.g., Parkinson's disease. C57BL/6J mice were pretreated with either vehicle (1% methyl cellulose) or a drug (p.o.) 30 min before MPTP. MPTP was dissolved in isotonic saline (0.9%) and given subcutaneously as a single dose of 15 mg free base/kg body weight to produce a reduction in striatal dopamine to about 0.5 nanomoles/mg protein. Groups of mice (n=8–10 per group) received either vehicle plus saline, vehicle plus MPTP or drug plus MPTP. Seventy two hours after receiving MPTP, mice were sacrificed using cervical dislocation and the striata were excised. The tissue was homogenized in 0.4 N perchloric acid, centrifuged, and the supernatant analyzed by high performance liquid chromatography/electro-chemical detection (HPLC/ED) for dopamine levels. Supernatants were stored in a −90° C. freezer between the time of collection and analysis. The drugs were combined with methyl cellulose and were homogenized in water for dosing. The dosage amount ranged from 10 to 50 mg/kg for CPI1160, CPI1189 and CPI1234, and from 50 to 100 mg/kg for CPI1020.

[2] = In vivo biotransformation of orally administered CPI1020, blood of rats; conditions: rats given CPI1020 orally
Excerpt: (§1) Commonly owned U.S. patent application Ser. No. 08/227,777, referred to above, discloses several benzamides useful in treating neurodegenerative diseases based on their protective action in the MPTP mouse model of Parkinson's disease. […] This compound is likely formed in the body by reduction of the ring nitro of CPI1020 to an amino moiety (CPI1160) followed by acetylation of the amino function.

[3] = In vivo biotransformation of orally administered CPI1020, blood of mice; conditions: mice given CPI1020 orally
Excerpt: as §1

Row | SMILES | protection from the neurotoxic action of MPTP (% of control) ([1]; 50 mg/kg p.o., 15 mg/kg MPTP model) | melting point [°C] | preventing dopamine depletion following MPTP challenge (in words) [1] | in vivo biotransformation product of CPI1020 in blood [2] | in vivo biotransformation product of CPI1020 in blood [3]
1 | CC(C)(C)NC(=O)c1ccc([N+](=O)[O-])cc1 [CPI1020, N-tert-butyl-4-nitrobenzamide, reference compound] | 65 % of control |  |  |  | 
2 | CC(C)(C)NC(=O)c1ccc(N)cc1 [CPI1160, N-tert-butyl-4-aminobenzamide] |  | 125 to 127 | effective |  | 
3 | CC(=O)Nc1ccc(C(=O)NC(C)(C)C)cc1 [CPI1189, N-tert-butyl-4-acetamidobenzamide] |  |  | effective | found in the blood | found in the blood
4 | CC(=O)Nc1cccc(C(=O)NC(C)(C)C)c1 [CPI1234, N-tert-butyl-3-acetamidobenzamide] |  | 194 to 195 | effective |  | 
